Reference: patent publication US11918592B2, “Inhibitors of cyclin dependent kinase 7 (CDK7)” (Syros Pharmaceuticals, Inc., priority 2018, dated 2024)
pIC50: −log10 of the molar value. Where two headings read alike, the source gives them in different places.

Legend:
HCC70 cells = assay: Inhibition of cell proliferation, CyQUANT Direct, HCC70; format: cell-based, human; details: HCC70 triple negative breast cancer cells, 72-hour, read-out: HCC 70 proliferation calculated IC50
Method: (§1) HCC70 and MB453 cells are cell lines derived from human triple negative breast cancer. COV318 and COV504 cells are cell lines derived from human ovarian cancer. Representative compounds of the invention were tested at different concentrations (from 4 μM to 126.4 pM; 0.5 log serial dilutions) for their ability to inhibit the proliferation of each of these cell lines. Known CDK inhibitors dinaciclib or N-((1S,3R)-3-((5-chloro-4-(1H-indol-3-yl) pyrimidin-2-yl)amino)cyclohexyl)-5-((E)-4-(dimethylamino)but-2-enamido)picolinamide and triptolide were used as positive controls. Cells were seeded at approximately 2,000 cells/well and grown in ATCC-formulated RPMI-1640 Medium (ATCC 30-2001)+10% FBS. The cells were cultured at 37° C. in a humidified chamber in the presence of 5% CO2. Proliferation assays were conducted over a 72-hour time period. CyQUANT® Direct Cell Proliferation Assay (Life Technologies, Chicago, IL USA) was used to assess the anti-proliferative effects of the compounds following manufacturer's directions and utilizing the reagents supplied with the CyQUANT® Direct Cell kit.

COV318 cells = assay: Inhibition of cell proliferation, CyQUANT Direct, COV318; format: cell-based; details: Homo sapiens; COV318 ovarian cancer cells, 72-hour; read-out: COV 318 proliferation calculated IC50
Method: as §1

COV504 cells = assay: Inhibition of cell proliferation, CyQUANT Direct, COV504; format: cell-based; details: Homo sapiens; COV504 ovarian cancer cells, 72-hour; read-out: COV 504 proliferation calculated IC50
Method: as §1

MB453 cells = assay: Inhibition of cell proliferation, CyQUANT Direct, MB453; format: cell-based, human; details: MB453 triple negative breast cancer cells, 72-hour, read-out: MB 453 proliferation calculated IC50
Method: as §1

CDK2/Cyclin E1 complex = CDK2/Cyclin E1 complex (Homo sapiens, UniProt P24941); assay: CDK2 kinase inhibition assay (Caliper/LabChip EZ Reader)
Method: (§2) Compounds of the invention were assayed for inhibition of CDK7, CDK9, CDK12, and CDK2 activity at Biortus Biosciences (Jiangyin, Jiangsu Province, P.R. of China) using kinase assays for each CDK developed with a Caliper/LabChip EZ Reader (Perkin Elmer, Waltham, MA).
(§3) Furthermore, the CDK9 inhibition assay used CDK9/Cyclin T1 complex (8 nM) and “5-FAM-CDK9tide” peptide substrate (2 μM, synthesized fluorophore-labeled peptide with the following sequence: 5-FAM-GSRTPMY-NH2 (SEQ ID NO:2) where 5-FAM is defined above and NH2 signifies a C-terminal amide) with 10 mM MgCl2 in the buffer composition listed above. The CDK12 inhibition assay used CDK12 (aa686-1082)/Cyclin K complex (50 nM) and “5-FAM-CDK9tide” (2 μM) as defined above, with 2 mM MgCl2 in the buffer composition above. Additionally, the CDK2 inhibition assay used CDK2/Cyclin E1 complex (0.5 nM) and “5-FAM-CDK7tide” (2 μM) as defined above, with 2 mM MgCl2 in the buffer composition listed above.
(§4) The incubation period at 27° C. for each CDK inhibition assay was chosen such that the fraction of phosphorylated peptide product produced in each assay, relative to the total peptide concentration, was approximately 20% (±5%) for the uninhibited kinase (35 min. for CDK7, 35 min. for CDK2, 3 hr. for CDK12, 15 min. for CDK9).

[1] = molecular target: CDK7/Cyclin H/MAT1 complex (Homo sapiens, UniProt P50613); assay: CDK7 kinase inhibition assay (Caliper/LabChip EZ Reader)
CDK7/Cyclin H/MAT1 complex, sequence (P50613 whole entry): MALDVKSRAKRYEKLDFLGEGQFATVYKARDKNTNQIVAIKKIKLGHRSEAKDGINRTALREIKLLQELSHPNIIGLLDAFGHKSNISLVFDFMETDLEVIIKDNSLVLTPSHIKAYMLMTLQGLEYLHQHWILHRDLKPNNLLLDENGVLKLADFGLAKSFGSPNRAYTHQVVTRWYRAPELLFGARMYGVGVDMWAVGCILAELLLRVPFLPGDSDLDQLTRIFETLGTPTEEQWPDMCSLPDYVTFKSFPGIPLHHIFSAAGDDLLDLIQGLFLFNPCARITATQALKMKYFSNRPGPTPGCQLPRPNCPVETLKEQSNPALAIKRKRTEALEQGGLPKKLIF
CDK7/Cyclin H/MAT1 complex, sequence (P51946 whole entry partner): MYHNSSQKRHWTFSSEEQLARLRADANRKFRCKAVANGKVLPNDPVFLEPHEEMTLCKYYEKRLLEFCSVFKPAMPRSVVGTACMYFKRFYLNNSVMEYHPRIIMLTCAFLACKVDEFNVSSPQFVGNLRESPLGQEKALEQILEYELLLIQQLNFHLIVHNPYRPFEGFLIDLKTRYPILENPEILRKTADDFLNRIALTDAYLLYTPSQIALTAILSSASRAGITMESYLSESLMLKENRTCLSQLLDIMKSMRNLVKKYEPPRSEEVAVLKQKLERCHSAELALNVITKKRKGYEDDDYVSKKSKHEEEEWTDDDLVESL
CDK7/Cyclin H/MAT1 complex, sequence (P51948 whole entry partner): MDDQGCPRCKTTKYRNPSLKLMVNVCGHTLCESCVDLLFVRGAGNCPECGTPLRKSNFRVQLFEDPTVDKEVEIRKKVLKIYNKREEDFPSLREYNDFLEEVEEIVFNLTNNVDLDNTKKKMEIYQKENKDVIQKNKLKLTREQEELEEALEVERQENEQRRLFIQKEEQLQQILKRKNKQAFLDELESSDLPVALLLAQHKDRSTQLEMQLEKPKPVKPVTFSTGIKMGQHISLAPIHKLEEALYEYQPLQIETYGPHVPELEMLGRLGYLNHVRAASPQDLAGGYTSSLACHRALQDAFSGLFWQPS
Method: as §2, §3, §4

CDK9/Cyclin T1 complex = CDK9/Cyclin T1 complex (Homo sapiens, UniProt P50750); assay: CDK9 kinase inhibition assay (Caliper/LabChip EZ Reader)
CDK9/Cyclin T1 complex, sequence (P50750 whole entry, the tested form may be a part): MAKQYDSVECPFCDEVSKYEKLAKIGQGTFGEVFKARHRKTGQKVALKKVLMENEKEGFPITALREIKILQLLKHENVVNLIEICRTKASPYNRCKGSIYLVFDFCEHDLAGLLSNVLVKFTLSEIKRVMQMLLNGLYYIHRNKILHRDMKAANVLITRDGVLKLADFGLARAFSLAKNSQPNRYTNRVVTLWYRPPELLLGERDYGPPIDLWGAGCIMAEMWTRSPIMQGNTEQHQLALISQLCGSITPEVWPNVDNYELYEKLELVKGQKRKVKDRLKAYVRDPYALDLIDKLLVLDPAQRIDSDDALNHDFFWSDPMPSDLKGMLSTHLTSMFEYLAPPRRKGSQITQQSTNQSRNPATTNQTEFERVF
CDK9/Cyclin T1 complex, sequence (O60563 whole entry partner, the tested form may be a part): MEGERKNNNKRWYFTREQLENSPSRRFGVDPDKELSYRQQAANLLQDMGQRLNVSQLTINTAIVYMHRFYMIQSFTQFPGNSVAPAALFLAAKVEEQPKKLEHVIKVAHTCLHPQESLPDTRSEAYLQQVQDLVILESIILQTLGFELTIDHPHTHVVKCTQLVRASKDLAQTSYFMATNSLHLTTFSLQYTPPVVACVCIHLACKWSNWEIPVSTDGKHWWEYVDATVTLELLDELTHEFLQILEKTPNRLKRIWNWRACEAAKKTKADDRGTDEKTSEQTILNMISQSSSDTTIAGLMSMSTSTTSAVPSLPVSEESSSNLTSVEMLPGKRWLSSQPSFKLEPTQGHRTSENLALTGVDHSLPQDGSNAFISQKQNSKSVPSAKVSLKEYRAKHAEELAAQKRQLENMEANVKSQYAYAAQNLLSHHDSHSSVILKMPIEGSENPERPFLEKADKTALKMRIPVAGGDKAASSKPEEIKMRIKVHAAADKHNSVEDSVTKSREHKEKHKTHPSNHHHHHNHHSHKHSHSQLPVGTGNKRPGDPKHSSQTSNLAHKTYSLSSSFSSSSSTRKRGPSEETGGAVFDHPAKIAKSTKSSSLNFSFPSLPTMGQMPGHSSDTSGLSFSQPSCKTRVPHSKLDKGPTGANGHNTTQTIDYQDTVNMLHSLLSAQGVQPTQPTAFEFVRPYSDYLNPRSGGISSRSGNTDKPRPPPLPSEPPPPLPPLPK
Method: as §2, §3, §4

[2] = molecular target: CDK12 (aa686-1082)/Cyclin K complex (Homo sapiens, UniProt Q9NYV4); assay: CDK12 kinase inhibition assay (Caliper/LabChip EZ Reader)
CDK12 (aa686-1082)/Cyclin K complex, sequence (Q9NYV4 686-1082): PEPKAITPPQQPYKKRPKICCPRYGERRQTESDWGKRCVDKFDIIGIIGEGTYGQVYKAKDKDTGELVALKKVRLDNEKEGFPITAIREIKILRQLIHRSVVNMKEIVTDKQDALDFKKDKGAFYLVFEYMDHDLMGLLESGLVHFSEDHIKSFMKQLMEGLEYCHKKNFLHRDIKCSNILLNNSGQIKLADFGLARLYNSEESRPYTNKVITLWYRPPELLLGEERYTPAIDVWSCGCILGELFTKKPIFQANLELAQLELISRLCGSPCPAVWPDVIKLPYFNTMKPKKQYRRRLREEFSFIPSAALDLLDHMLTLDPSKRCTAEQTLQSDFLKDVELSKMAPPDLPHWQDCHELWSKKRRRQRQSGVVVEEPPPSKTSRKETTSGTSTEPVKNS
CDK12 (aa686-1082)/Cyclin K complex, sequence (O75909 whole entry partner, the tested form may be a part): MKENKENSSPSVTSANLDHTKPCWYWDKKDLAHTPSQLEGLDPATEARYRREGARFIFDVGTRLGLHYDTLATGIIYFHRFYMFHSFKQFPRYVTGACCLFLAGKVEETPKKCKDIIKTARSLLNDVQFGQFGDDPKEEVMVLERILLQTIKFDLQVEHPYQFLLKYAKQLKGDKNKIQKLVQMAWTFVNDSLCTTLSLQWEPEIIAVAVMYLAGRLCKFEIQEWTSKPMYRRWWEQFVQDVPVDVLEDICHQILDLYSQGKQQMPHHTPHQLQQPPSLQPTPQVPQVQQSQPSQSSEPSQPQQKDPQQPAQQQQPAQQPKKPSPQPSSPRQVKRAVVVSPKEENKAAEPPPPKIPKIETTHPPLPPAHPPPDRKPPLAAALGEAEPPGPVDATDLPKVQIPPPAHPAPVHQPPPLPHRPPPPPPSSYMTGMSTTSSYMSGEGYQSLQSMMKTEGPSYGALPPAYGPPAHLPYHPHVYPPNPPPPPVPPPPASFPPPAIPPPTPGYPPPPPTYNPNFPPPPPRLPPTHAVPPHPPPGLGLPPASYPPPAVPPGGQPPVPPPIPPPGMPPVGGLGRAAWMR
Method: as §2, §3, §4

Compound	pIC50 (HCC70 cells; Homo sapiens)	pIC50 (COV318 cells)	pIC50 (COV504 cells)	pIC50 (MB453 cells; Homo sapiens)	pIC50 (CDK2/Cyclin E1 complex)	pIC50 [1]	pIC50 (CDK9/Cyclin T1 complex)	pIC50 [2]	pIC50 (HCC70 cells)	pIC50 (MB453 cells)	pIC50 (CDK2/Cyclin E1 complex; read-out: CDK 2 calculated IC50, ATP 2 mM, 27° C., 35 min incubation, 2 mM MgCl2)	pIC50 ([1]; read-out: CDK 7 calculated IC50, ATP 2 mM, 27° C., 35 min incubation, 6 mM MgCl2)	pIC50 (CDK9/Cyclin T1 complex; read-out: CDK 9 calculated IC50, ATP 2 mM, 27° C., 15 min incubation, 10 mM MgCl2)	pIC50 ([2]; read-out: CDK 12 calculated IC50, ATP 2 mM, 27° C., 3 hr incubation, 2 mM MgCl2)
Cc1noc(C)c1-c1ccc2c(-c3nc(N[C@H]4CCC[C@@H]4N4CC(F)(F)C4)ncc3C(F)(F)F)c[nH]c2n1 [Compound 166, N-[(1S,2S)-2-(3,3-difluoroazetidin-1-yl)cyclopentyl]-4-[6-(3,5-dimethylisoxazol-4-yl)-1H-pyrrolo[2,3-b]pyridin-3-yl]-5-(trifluoromethyl)pyrimidin-2-amine]	< 5.70	< 5.70	< 5.70	< 5.70	< 6.30	< 6.30	< 6.30	< 6.30	–	–	–	–	–	–
N#Cc1ccc2c(-c3nc(NC[C@@H]4COCCN4)ncc3C(F)(F)F)c[nH]c2c1 [Compound 102]	< 5.70	< 5.70	< 5.70	< 5.70	< 6.30	< 6.30	< 6.30	< 6.30	–	–	–	–	–	–
CC(C)N1CC[C@H](Nc2ncc(C(F)(F)F)c(-c3c[nH]c4cc(C#N)ccc34)n2)C1 [Compound 105]	< 5.70	< 5.70	< 5.70	< 5.70	< 6.30	< 6.30	< 6.30	< 6.30	–	–	–	–	–	–
N#Cc1ccc2c(-c3nc(N[C@H]4Cc5ccccc5[C@@H]4N)ncc3C(F)(F)F)c[nH]c2c1 [Compound 119, 3-[2-[[(1S,2S)-1-aminoindan-2-yl]-amino]-5-(trifluoromethyl)pyrimidin-4-yl]-1H-indole-6-carbonitrile]	6.30 to 7.00	< 5.70	6.30 to 7.00	6.30 to 7.00	< 6.30	> 7.52	< 6.30	< 6.30	–	–	–	–	–	–
Cc1noc(C)c1-c1ccc2c(-c3nc(N[C@H]4CCC[C@@H]4N4CC[C@@H](F)C4)ncc3C(F)(F)F)c[nH]c2n1 [Compound 148, 4-[6-(3,5-dimethylisoxazol-4-yl)-1H-pyrrolo[2,3-b]pyridin-3-yl]-N-[(1S,2S)-2-[(3R)-3-fluoropyrrolidin-1-yl]cyclopentyl]-5-(trifluoromethyl)pyrimidin-2-amine]	6.30 to 7.00	< 5.70	> 7.00	6.30 to 7.00	< 6.30	> 7.52	< 6.30	< 6.30	–	–	–	–	–	–
Cc1noc(C)c1-c1ccc2c(-c3nc(N[C@H]4CCC[C@@H]4NCCF)ncc3C(F)(F)F)c[nH]c2n1 [Compound 151, (1S,2S)—N1-[4-[6-(3,5-dimethylisoxazol-4-yl)-1H-pyrrolo[2,3-b]pyridin-3-yl]-5-(trifluoromethyl)pyrimidin-2-yl]-N2-(2-fluoroethyl)cyclopentane-1,2-diamine]	> 7.00	< 5.70	> 7.00	6.30 to 7.00	< 6.30	> 7.52	< 6.30	< 6.30	–	–	–	–	–	–
Cc1noc(C)c1-c1ccc2c(-c3nc(N[C@@H]4C[C@@H]5CC[C@H]4N5)ncc3C(F)(F)F)c[nH]c2c1 [Compound 137, (1S,2S,4R)—N-[4-[6-(3,5-dimethylisoxazol-4-yl)-1H-indol-3-yl]-5-(trifluoromethyl)pyrimidin-2-yl]-7-azabicyclo-[2.2.1]-heptan-3-amine]	> 7.00	6.30 to 7.00	> 7.00	> 7.00	< 6.30	> 7.52	< 6.30	< 6.30	–	–	–	–	–	–
Cc1noc(C)c1-c1ccc2c(-c3nc(N[C@H]4CCC[C@@H]4NCC(F)F)ncc3C(F)(F)F)c[nH]c2n1 [Compound 147, (1S, 2S)—N2-(2,2-difluoroethyl)-N1-[4-[6-(3,5-dimethylisoxazol-4-yl)-1H-pyrrolo[2,3-b]pyridin-3-yl]-5-(trifluoromethyl)pyrimidin-2-yl] cyclopentane-1,2-diamine]	5.70 to 6.30	< 5.70	6.30 to 7.00	6.30 to 7.00	< 6.30	> 7.52	< 6.30	< 6.30	–	–	–	–	–	–
Cc1noc(C)c1-c1ccc2c(-c3nc(N[C@H]4CCC[C@@H]4N4CC(F)C4)ncc3C(F)(F)F)c[nH]c2n1 [Compound 155, 4-[6-(3,5-dimethylisoxazol-4-yl)-1H-pyrrolo [2,3-b]pyridin-3-yl]-N-[(1S, 2S)-2-(3-fluoroazetidin-1-yl)cyclopentyl]-5-(trifluoromethyl) pyrimidin-2-amine]	< 5.70	< 5.70	< 5.70	< 5.70	< 6.30	6.30 to 7.00	< 6.30	< 6.30	–	–	–	–	–	–
N#Cc1ccc2c(-c3nc(N[C@H]4CCC[C@@H]4N4CCOCC4)ncc3C(F)(F)F)c[nH]c2c1 [Compound 121]	< 5.70	< 5.70	< 5.70	< 5.70	< 6.30	7.00 to 7.52	< 6.30	< 6.30	–	–	–	–	–	–
Cc1noc(C)c1-c1ccc2c(-c3nc(N[C@H]4CCC[C@@H]4N)ncc3C(F)(F)F)c[nH]c2c1 [Compound 118]	6.30 to 7.00	> 7.00	> 7.00	> 7.00	< 6.30	> 7.52	< 6.30	< 6.30	–	–	–	–	–	–
N#Cc1ccc2c(-c3nc(N[C@H]4CCC[C@@H]4N)ncc3C(F)(F)F)c[nH]c2c1 [Compound 101]	6.30 to 7.00	6.30 to 7.00	6.30 to 7.00	6.30 to 7.00	< 6.30	> 7.52	< 6.30	< 6.30	–	–	–	–	–	–
N#Cc1ccc2c(-c3nc(N[C@@H]4C[C@@H]5CCC4N5)ncc3C(F)(F)F)c[nH]c2c1 (racemic) [Compound 106, 3-(2-[[(+/−)-exo-7-azabicyclo[2.2.1]heptan-2-yl]amino]-5-(trifluoromethyl)pyrimidin-4-yl)-1H-indole-6-carbonitrile]	6.30 to 7.00	6.30 to 7.00	6.30 to 7.00	6.30 to 7.00	< 6.30	> 7.52	< 6.30	< 6.30	–	–	–	–	–	–
C[C@H]1C[C@H](Nc2ncc(C(F)(F)F)c(-c3c[nH]c4cc(C#N)ccc34)n2)CN1 [Compound 104]	5.70 to 6.30	< 5.70	6.30 to 7.00	6.30 to 7.00	< 6.30	7.00 to 7.52	< 6.30	< 6.30	–	–	–	–	–	–
CP(C)(=O)c1c(C(N)=O)ccc2c(-c3nc(N[C@H]4CCC[C@@H]4N)ncc3C(F)(F)F)c[nH]c12 [Compound 162, 3-[2-[[(1S,2S)-2-aminocyclopentyl]amino]-5(trifluoromethyl)pyrimidin-4-yl]-7-dimethylphosphoryl-1H-indole-6-carboxamide]	–	–	–	–	< 6.30	> 7.52	< 6.30	–	–	–	–	–	–	–
COCCN[C@@H]1CC[C@H]1Nc1ncc(C(F)(F)F)c(-c2c[nH]c3cc(C#N)ccc23)n1 [Compound 134]	–	–	–	–	< 6.30	< 6.30	< 6.30	< 6.30	–	–	–	–	–	–
N#Cc1ccc2c(-c3nc(N[C@@H]4CC[C@H]4N4CCCC4)ncc3C(F)(F)F)c[nH]c2c1 [Compound 136, 3-[2-[[(1R,2R)-2-pyrrolidin-1-ylcyclobutyl]-amino]-5-(trifluoromethyl)pyrimidin-4-yl]-1H-indole-6-carbonitrile]	–	–	–	–	< 6.30	6.30 to 7.00	< 6.30	< 6.30	–	–	–	–	–	–
COC1CCN([C@H]2CCC[C@@H]2Nc2ncc(C(F)(F)F)c(-c3c[nH]c4nc(-c5c(C)noc5C)ccc34)n2)C1 (stereo partly shown) [Compound 153]	6.30 to 7.00	< 5.70	6.30 to 7.00	5.70 to 6.30	–	–	–	–	–	–	–	–	–	–
Cc1noc(C)c1-c1ccc2c(-c3nc(N[C@@H]4C[C@H]5CC[C@@H]4N5)ncc3C(F)(F)F)c[nH]c2c1 [Compound 138, (1R,2R,4S)—N-[4-[6-(3,5-dimethylisoxazol-4-yl)-1H-indol-3-yl]-5-(trifluoromethyl)pyrimidin-2-yl]-7-azabicyclo-[2.2.1]-heptan-3-amine]	–	–	–	–	–	–	–	–	6.30 to 7.00	6.30 to 7.00	< 6.30	7.00 to 7.52	< 6.30	< 6.30
